Assay results reported in patent US10604554B2, “Double-acylated GLP-1 derivatives” (Novo Nordisk A/S, priority 2012, dated 2020).
Numbered stars: 1 amine (or outer) side, 2 acyl side, 3 side chain; on linkers, the order of the positions; unused ones are H or OH. Square brackets hold non-standard residues; d marks the D form. Side chains are listed from the residue outwards. Peptide text beside a SMILES is read from it. * marks the point of attachment. Undecanoyl(11-OPh(4-COOH)) = O=C(O)c1ccc(OCCCCCCCCCCC(=O)*)cc1; γGlu = O=C(O)[C@H](CCC(=O)[*:2])N[*:1]; εLys = N[C@@H](CCCCN[*:1])C(=O)[*:2]; Aib = CC(C)(N)C(=O)O

Tests used:
[1] = target: T1, human GLP-1 receptor (Homo sapiens, UniProt P43220); experiment: In vitro potency (CRE luciferase; whole cells); format: cell-based; set-up: EC50/pM (ratio 1% HSA/0% HSA): unit not given here; details: for EC50: BHK cells; for EC50/pM (ratio 1% HSA/0% HSA): ratio of EC50 at 1% HSA to EC50 at 0% HSA
T1 construct: expressed in transfected cells; host or cells: BHK cells, clone FCW467-12A/KZ10-1 (parent line BHKTS13), further transfected with CRE luciferase
Procedure, shortened: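 Stably transfected BHK cells carrying human GLP-1R and a CRE–firefly luciferase reporter, 5×10^3 cells/well in assay medium, run with 0% or 1% HSA in assay buffer.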

[2] = target: T1, human GLP-1 receptor; experiment: GLP-1 receptor binding (SPA, displacement of 125I-GLP-1)
Procedure, shortened: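 Membranes from a stably transfected hamster cell line, 5-10 ug protein/sample, with WGA SPA beads and [125I]-GLP-1(7-36)NH2 at 0.06 nM final. Incubated 120 min at 30 °C with shaking, then counted.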

[3] = In vitro potency (CRE luciferase) EC50 (0% HSA), 0% HSA
[4] = In vitro potency (CRE luciferase) EC50 (1% HSA), 1% HSA
[5] = Receptor binding affinity IC50 (high HSA), 2.0% HSA (high albumin)
[6] = Receptor binding affinity IC50 (low HSA), 0.001% HSA (low albumin)

T1 sequence (P43220 24-463): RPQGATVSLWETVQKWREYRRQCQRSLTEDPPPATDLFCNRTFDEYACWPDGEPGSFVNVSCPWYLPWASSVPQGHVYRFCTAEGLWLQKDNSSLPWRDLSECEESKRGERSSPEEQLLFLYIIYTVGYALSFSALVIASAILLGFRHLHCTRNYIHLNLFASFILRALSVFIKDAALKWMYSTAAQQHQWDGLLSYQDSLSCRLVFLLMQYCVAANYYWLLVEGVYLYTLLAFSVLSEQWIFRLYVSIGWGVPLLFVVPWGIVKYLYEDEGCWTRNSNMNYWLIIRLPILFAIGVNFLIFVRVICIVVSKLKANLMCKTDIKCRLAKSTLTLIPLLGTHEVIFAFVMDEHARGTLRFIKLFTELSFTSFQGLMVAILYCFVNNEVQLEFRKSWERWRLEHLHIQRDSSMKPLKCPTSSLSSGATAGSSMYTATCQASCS

## CC[C@H](C)[C@H](NC(=O)[C@H](Cc1ccccc1)NC(=O)[C@H](CCC(=O)O)NC(=O)[C@H](CCCCNC(=O)[C@@H](N)CCCCNC(=O)[C@@H](N)CCCCNC(=O)COCCOCCNC(=O)COCCOCCNC(=O)CC[C@H](NC(=O)CCCCCCCCCCOc1ccc(C(=O)O)cc1)C(=O)O)NC(=O)[C@H](C)NC(=O)[C@H](C)NC(=O)[C@H](CCC(N)=O)NC(=O)CNC(=O)[C@H](CCC(=O)O)NC(=O)[C@H](CC(C)C)NC(=O)[C@H](Cc1ccc(O)cc1)NC(=O)[C@H](CO)NC(=O)[C@H](CO)NC(=O)[C@@H](NC(=O)[C@H](CC(=O)O)NC(=O)[C@H](CO)NC(=O)[C@@H](NC(=O)[C@H](Cc1ccccc1)NC(=O)[C@@H](NC(=O)CNC(=O)[C@H](CCC(=O)O)NC(=O)C(C)(C)NC(=O)[C@@H](N)Cc1c[nH]cn1)[C@@H](C)O)[C@@H](C)O)C(C)C)C(=O)N[C@@H](C)C(=O)N[C@@H](Cc1c[nH]c2ccccc12)C(=O)N[C@@H](CC(C)C)C(=O)N[C@H](C(=O)N[C@@H](CCCNC(=N)N)C(=O)NCC(=O)N[C@@H](CCCNC(=N)N)C(=O)N[C@@H](CCCCNC(=O)[C@@H](N)CCCCNC(=O)[C@@H](N)CCCCNC(=O)COCCOCCNC(=O)COCCOCCNC(=O)CC[C@H](NC(=O)CCCCCCCCCCOc1ccc(C(=O)O)cc1)C(=O)O)C(=O)O)C(C)C [Example 33]
[1]; [3]
  EC50: 7.4 pM
[1]; [4]
  EC50: 69 pM
[1]
  EC50/pM (ratio 1% HSA/0% HSA): 11
[2]; [5]
  IC50: 33000 pM
[2]; [6]
  IC50: 310 pM

## CC[C@H](C)[C@H](NC(=O)[C@H](Cc1ccccc1)NC(=O)[C@H](CCC(=O)O)NC(=O)[C@H](CCCCNC(=O)[C@@H](N)CCCCNC(=O)CC[C@H](NC(=O)CC[C@H](NC(=O)CC[C@H](NC(=O)CCCCCCCCCOc1ccc(C(=O)O)cc1)C(=O)O)C(=O)O)C(=O)O)NC(=O)[C@H](C)NC(=O)[C@H](C)NC(=O)[C@H](CCC(N)=O)NC(=O)CNC(=O)[C@H](CCC(=O)O)NC(=O)[C@H](CC(C)C)NC(=O)[C@H](Cc1ccc(O)cc1)NC(=O)[C@H](CO)NC(=O)[C@H](CO)NC(=O)[C@@H](NC(=O)[C@H](CC(=O)O)NC(=O)[C@H](CO)NC(=O)[C@@H](NC(=O)[C@H](Cc1ccccc1)NC(=O)[C@@H](NC(=O)CNC(=O)[C@H](CCC(=O)O)NC(=O)C(C)(C)NC(=O)[C@@H](N)Cc1c[nH]cn1)[C@@H](C)O)[C@@H](C)O)C(C)C)C(=O)N[C@@H](C)C(=O)N[C@@H](Cc1c[nH]c2ccccc12)C(=O)N[C@@H](CC(C)C)C(=O)N[C@H](C(=O)N[C@@H](CCCNC(=N)N)C(=O)NCC(=O)N[C@@H](CCCNC(=N)N)C(=O)N[C@@H](CCCCNC(=O)[C@@H](N)CCCCNC(=O)CC[C@H](NC(=O)CC[C@H](NC(=O)CC[C@H](NC(=O)CCCCCCCCCOc1ccc(C(=O)O)cc1)C(=O)O)C(=O)O)C(=O)O)C(=O)O)C(C)C [Example 8, N^ε26-[(2S)-2-amino-6-[[(4S)-4-carboxy-4-[[(4S)-4-carboxy-4-[[(4S)-4-carboxy-4-[10-(4-carboxyphenoxy)decanoylamino]butanoyl]amino]butanoyl]amino]butanoyl]amino]hexanoyl], N^ε37-[(2S)-2-amino-6-[[(4S)-4-carboxy-4-[[(4S)-4-carboxy-4-[[(4S)-4-carboxy-4-[10-(4-carboxyphenoxy)decanoylamino]butanoyl]amino]butanoyl]amino]butanoyl]amino]hexanoyl]-[Aib^8,Arg^34,Lys^37]-GLP-1-(7-37)-peptide]
[1]; [3]
  EC50: 2.6 pM
[1]; [4]
  EC50: 45 pM
[2]; [5]
  IC50: 269000 pM
[2]; [6]
  IC50: 680 pM

## CC[C@H](C)[C@H](NC(=O)[C@H](Cc1ccccc1)NC(=O)[C@H](CCC(=O)O)NC(=O)[C@H](CCCCNC(=O)[C@@H](N)CCCCNC(=O)CC[C@H](NC(=O)CC[C@H](NC(=O)CCCCCCCCCCOc1ccc(C(=O)O)cc1)C(=O)O)C(=O)O)NC(=O)[C@H](C)NC(=O)[C@H](C)NC(=O)[C@H](CCC(N)=O)NC(=O)[C@H](CCC(=O)O)NC(=O)[C@H](CCC(=O)O)NC(=O)[C@H](CC(C)C)NC(=O)[C@H](Cc1ccc(O)cc1)NC(=O)[C@H](CO)NC(=O)[C@H](CO)NC(=O)[C@@H](NC(=O)[C@H](CC(=O)O)NC(=O)[C@H](CO)NC(=O)[C@@H](NC(=O)[C@H](Cc1ccccc1)NC(=O)[C@@H](NC(=O)CNC(=O)[C@H](CCC(=O)O)NC(=O)C(C)(C)NC(=O)[C@@H](N)Cc1c[nH]cn1)[C@@H](C)O)[C@@H](C)O)C(C)C)C(=O)N[C@@H](CCC(=O)O)C(=O)N[C@@H](Cc1c[nH]c2ccccc12)C(=O)N[C@@H](CC(C)C)C(=O)N[C@H](C(=O)N[C@@H](CCCNC(=N)N)C(=O)NCC(=O)N[C@@H](CCCNC(=N)N)C(=O)N[C@@H](CCCCNC(=O)[C@@H](N)CCCCNC(=O)CC[C@H](NC(=O)CC[C@H](NC(=O)CCCCCCCCCCOc1ccc(C(=O)O)cc1)C(=O)O)C(=O)O)C(=O)O)C(C)C [Example 41, N^ε26-[(2S)-2-amino-6-[[(4S)-4-carboxy-4-[[(4S)-4-carboxy-4-[11-(4-carboxyphenoxy)undecanoylamino]butanoyl]amino]butanoyl]amino]hexanoyl], N^ε37-[(2S)-2-amino-6-[[(4S)-4-carboxy-4-[[(4S)-4-carboxy-4-[11-(4-carboxyphenoxy)undecanoylamino]butanoyl]amino]butanoyl]amino]hexanoyl]-[Aib^8,Glu^22,Glu^30,Arg^34, Lys^37]-GLP-1-(7-37)-peptide] (H-H[Aib]EGTFTSDVSSYLEEQAAK([εLys-γGlu-γGlu-Undecanoyl(11-OPh(4-COOH))])EFIEWLVRGRK([εLys-γGlu-γGlu-Undecanoyl(11-OPh(4-COOH))])-OH; N-terminus and C-terminus assumed)
[1]
  EC50/pM (ratio 1% HSA/0% HSA): 260
[2]; [6]
  IC50: 30 pM

## CC[C@H](C)[C@H](NC(=O)[C@H](Cc1ccccc1)NC(=O)[C@H](CCC(=O)O)NC(=O)[C@H](CCCCNC(=O)[C@@H](N)CCCCNC(=O)[C@@H](N)CCCCNC(=O)COCCOCCNC(=O)CC[C@H](NC(=O)CCCCCCCCCCOc1ccc(C(=O)O)cc1)C(=O)O)NC(=O)[C@H](C)NC(=O)[C@H](C)NC(=O)[C@H](CCC(N)=O)NC(=O)CNC(=O)[C@H](CCC(=O)O)NC(=O)[C@H](CC(C)C)NC(=O)[C@H](Cc1ccc(O)cc1)NC(=O)[C@H](CO)NC(=O)[C@H](CO)NC(=O)[C@@H](NC(=O)[C@H](CC(=O)O)NC(=O)[C@H](CO)NC(=O)[C@@H](NC(=O)[C@H](Cc1ccccc1)NC(=O)[C@@H](NC(=O)CNC(=O)[C@H](CCC(=O)O)NC(=O)C(C)(C)NC(=O)[C@@H](N)Cc1c[nH]cn1)[C@@H](C)O)[C@@H](C)O)C(C)C)C(=O)N[C@@H](C)C(=O)N[C@@H](Cc1c[nH]c2ccccc12)C(=O)N[C@@H](CC(C)C)C(=O)N[C@H](C(=O)N[C@@H](CCCNC(=N)N)C(=O)NCC(=O)N[C@@H](CCCNC(=N)N)C(=O)N[C@@H](CCCCNC(=O)[C@@H](N)CCCCNC(=O)[C@@H](N)CCCCNC(=O)COCCOCCNC(=O)CC[C@H](NC(=O)CCCCCCCCCCOc1ccc(C(=O)O)cc1)C(=O)O)C(=O)O)C(C)C [Example 34, N^ε26-[(2S)-2-amino-6-[[(2S)-2-amino-6-[[2-[2-[2-[[(4S)-4-carboxy-4-[11-(4-carboxyphenoxy)undecanoylamino]butanoyl]amino]ethoxy]ethoxy]acetyl]amino]hexanoyl]amino]hexanoyl], N^ε37-[(2S)-2-amino-6-[[(2S)-2-amino-6-[[2-[2-[2-[[(4S)-4-carboxy-4-[11-(4-carboxyphenoxy)undecanoylamino]butanoyl]amino]ethoxy]ethoxy]acetyl]amino]hexanoyl]amino]hexanoyl]-[Aib^8,Arg^34,Lys^37]-GLP-1-(7-37)-peptide]
[1]; [3]
  EC50: 7.9 pM
[1]; [4]
  EC50: 59 pM
[1]
  EC50/pM (ratio 1% HSA/0% HSA): 9.1
[2]; [5]
  IC50: 45000 pM
[2]; [6]
  IC50: 120 pM

## CC[C@H](C)[C@H](NC(=O)[C@H](Cc1ccccc1)NC(=O)[C@H](CCC(=O)O)NC(=O)[C@H](CCCCNC(=O)[C@@H](N)CCCCNC(=O)[C@@H](N)CCCCNC(=O)CC[C@H](NC(=O)CC[C@H](NC(=O)CCCCCCCCCCOc1ccc(C(=O)O)cc1)C(=O)O)C(=O)O)NC(=O)[C@H](C)NC(=O)[C@H](C)NC(=O)[C@H](CCC(N)=O)NC(=O)CNC(=O)[C@H](CCC(=O)O)NC(=O)[C@H](CC(C)C)NC(=O)[C@H](Cc1ccc(O)cc1)NC(=O)[C@H](CO)NC(=O)[C@H](CO)NC(=O)[C@@H](NC(=O)[C@H](CC(=O)O)NC(=O)[C@H](CO)NC(=O)[C@@H](NC(=O)[C@H](Cc1ccccc1)NC(=O)[C@@H](NC(=O)CNC(=O)[C@H](CCC(=O)O)NC(=O)C(C)(C)NC(=O)[C@@H](N)Cc1c[nH]cn1)[C@@H](C)O)[C@@H](C)O)C(C)C)C(=O)N[C@@H](C)C(=O)N[C@@H](Cc1c[nH]c2ccccc12)C(=O)N[C@@H](CC(C)C)C(=O)N[C@H](C(=O)N[C@@H](CCCNC(=N)N)C(=O)NCC(=O)N[C@@H](CCCNC(=N)N)C(=O)N[C@@H](CCCCNC(=O)[C@@H](N)CCCCNC(=O)[C@@H](N)CCCCNC(=O)CC[C@H](NC(=O)CC[C@H](NC(=O)CCCCCCCCCCOc1ccc(C(=O)O)cc1)C(=O)O)C(=O)O)C(=O)O)C(C)C [Example 38, N^ε26-[(2S)-2-amino-6-[[(2S)-2-amino-6-[[(4S)-4-carboxy-4-[[(4S)-4-carboxy-4-[11-(4-carboxyphenoxy)undecanoylamino]butanoyl]amino]butanoyl]amino]hexanoyl]amino]hexanoyl], N^ε37-[(2S)-2-amino-6-[[(2S)-2-amino-6-[[(4S)-4-carboxy-4-[[(4S)-4-carboxy-4-[11-(4-carboxyphenoxy)undecanoylamino]butanoyl]amino]butanoyl]amino]hexanoyl]amino]hexanoyl]-[Aib^8,Arg^34,Lys^37]-GLP-1-(7-37)-peptide]
[1]; [3]
  EC50: 7.6 pM
[1]; [4]
  EC50: 189 pM
[2]; [5]
  IC50: 53000 pM
